From ChEMBL document CHEMBL3132822, “Novel 1-(1-benzyl-1H-indol-3-yl)-N,N,N-trimethylmethanaminium iodides are competitive antagonists for the human 42 and 7 nicotinic acetylcholine receptors” (Medchemcomm, 2013)
Blank lines part the entries; values can stand above or below the molecule they belong to.

Assays:
[1] = biological target: T1, Neuronal acetylcholine receptor; alpha4/beta2 (Homo sapiens, UniProt P17787+P43681); test: Displacement of [3H]cytisine from human alpha4beta2 nAChR; format: protein-complex assay
[2] = biological target: T2, Neuronal acetylcholine receptor subunit alpha-7 (Homo sapiens, UniProt P36544); test: Displacement of [3H]MLA from human alpha7 nAChR
Homo sapiens = organism: Homo sapiens; test: Selectivity ratio of IC50 for human alpha4beta2 nAChR to IC50 for human alpha7 nAChR
[3] = biological target: T2, Neuronal acetylcholine receptor subunit alpha-7; test: Antagonist activity at human alpha7 nAChR expressed in rat GH3 cells assessed as (+/-)-epibatidine-induced Ca2+ influx; format: cell-based
[4] = biological target: T1, Neuronal acetylcholine receptor; alpha4/beta2; test: Antagonist activity at human alpha4beta2 nAChR expressed in HEK293 cells assessed as (+/-)-epibatidine-induced Ca2+ influx; format: cell-based
[5] = biological target: T1, Neuronal acetylcholine receptor; alpha4/beta2; test: Displacement of [3H]imipramine from human alpha4beta2 nAChR; format: protein-complex assay
[6] = biological target: T2, Neuronal acetylcholine receptor subunit alpha-7; test: Displacement of [3H]imipramine from human alpha7 nAChR

T1 sequence (P17787 whole entry): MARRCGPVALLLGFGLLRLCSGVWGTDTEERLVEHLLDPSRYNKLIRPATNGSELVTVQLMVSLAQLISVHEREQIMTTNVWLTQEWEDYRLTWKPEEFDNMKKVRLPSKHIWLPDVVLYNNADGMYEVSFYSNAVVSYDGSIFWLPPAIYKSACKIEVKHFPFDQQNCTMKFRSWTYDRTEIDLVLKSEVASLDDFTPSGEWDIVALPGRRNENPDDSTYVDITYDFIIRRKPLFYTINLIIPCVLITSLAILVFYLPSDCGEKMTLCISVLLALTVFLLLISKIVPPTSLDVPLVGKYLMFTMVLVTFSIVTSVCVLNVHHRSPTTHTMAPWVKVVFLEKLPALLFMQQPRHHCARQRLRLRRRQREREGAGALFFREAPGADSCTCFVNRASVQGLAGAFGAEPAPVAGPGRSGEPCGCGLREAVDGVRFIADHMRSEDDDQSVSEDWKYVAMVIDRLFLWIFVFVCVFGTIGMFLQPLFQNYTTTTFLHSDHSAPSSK
T1 sequence (P43681 whole entry): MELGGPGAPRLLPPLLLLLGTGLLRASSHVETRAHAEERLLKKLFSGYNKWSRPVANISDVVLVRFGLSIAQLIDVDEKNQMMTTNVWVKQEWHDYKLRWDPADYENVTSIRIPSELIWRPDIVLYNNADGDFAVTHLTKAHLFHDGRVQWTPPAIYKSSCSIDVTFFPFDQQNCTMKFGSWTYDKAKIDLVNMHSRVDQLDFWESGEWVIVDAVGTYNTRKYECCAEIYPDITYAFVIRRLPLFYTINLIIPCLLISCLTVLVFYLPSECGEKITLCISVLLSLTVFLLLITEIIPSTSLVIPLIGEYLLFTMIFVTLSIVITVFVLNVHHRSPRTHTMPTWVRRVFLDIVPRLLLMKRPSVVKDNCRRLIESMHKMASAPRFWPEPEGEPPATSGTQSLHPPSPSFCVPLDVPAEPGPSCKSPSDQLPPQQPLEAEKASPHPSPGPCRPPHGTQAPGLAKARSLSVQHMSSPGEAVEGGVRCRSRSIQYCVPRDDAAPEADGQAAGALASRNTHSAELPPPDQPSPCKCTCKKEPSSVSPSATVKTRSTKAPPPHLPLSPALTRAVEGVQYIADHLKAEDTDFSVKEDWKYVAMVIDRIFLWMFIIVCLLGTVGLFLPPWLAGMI
T2 sequence (P36544 whole entry): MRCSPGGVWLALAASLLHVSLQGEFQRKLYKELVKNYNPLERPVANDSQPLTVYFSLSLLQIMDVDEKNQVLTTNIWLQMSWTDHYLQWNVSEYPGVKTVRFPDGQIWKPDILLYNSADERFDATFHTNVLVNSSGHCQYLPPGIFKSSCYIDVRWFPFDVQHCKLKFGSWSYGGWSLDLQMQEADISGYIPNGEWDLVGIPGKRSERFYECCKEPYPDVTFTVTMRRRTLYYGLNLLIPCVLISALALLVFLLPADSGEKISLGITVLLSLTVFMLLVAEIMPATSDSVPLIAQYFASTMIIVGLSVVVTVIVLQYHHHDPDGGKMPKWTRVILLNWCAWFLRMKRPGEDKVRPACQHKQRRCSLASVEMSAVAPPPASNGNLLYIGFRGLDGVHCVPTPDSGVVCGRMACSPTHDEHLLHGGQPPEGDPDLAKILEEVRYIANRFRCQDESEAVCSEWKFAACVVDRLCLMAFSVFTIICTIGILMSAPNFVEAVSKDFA

SMILES: C[N+](C)(C)Cc1cn(Cc2ccccc2)c2ccccc12
- Ratio IC50 (Homo sapiens): 1.9
- IC50 [3]: 2.3 µM
- IC50 [4]: 4.2 µM

SMILES: C[N+](C)(C)Cc1cn(Cc2ccc3c(c2)OCO3)c2ccccc12
- Ratio IC50 (Homo sapiens): 3
- IC50 [3]: 1.3 µM
- IC50 [4]: 3.9 µM

SMILES: C[n+]1cccc(Cn2cc(C[N+](C)(C)C)c3ccccc32)c1
- IC50 [3]: 41.3 µM
- IC50 [4]: > 100 µM

SMILES: COc1ccc(Cn2cc(C[N+](C)(C)C)c3ccccc32)cc1
- Ratio IC50 (Homo sapiens): 2.2
- IC50 [3]: 2 µM
- IC50 [4]: 4.4 µM

SMILES: C[N+](C)(C)Cc1cn(Cc2cccc(O)c2)c2ccccc12
- Ki [5]: 112 µM
- Ki [1]: 1.6 µM
- Ki [6]: 145 µM
- Ki [2]: 0.6 µM
- Ratio IC50 (Homo sapiens): 14.7
- IC50 [3]: 1 µM
- IC50 [4]: 14.7 µM

Results, then the molecule that gave them:

- Ki [1]: 0.6 µM
- Ki [2]: 2.9 µM
- Ratio IC50 (Homo sapiens): 11.3
- IC50 [3]: 2.2 µM
- IC50 [4]: 24.9 µM
SMILES: C[N+](C)(C)Cc1cn(Cc2ccc(O)cc2)c2ccccc12

- Ratio IC50 (Homo sapiens): 2.8
- IC50 [3]: 3.4 µM
- IC50 [4]: 9.5 µM
SMILES: COc1ccc(Cn2cc(C[N+](C)(C)C)c3ccccc32)cc1O

- Ratio IC50 (Homo sapiens): 7.4
- IC50 [3]: 2.7 µM
- IC50 [4]: 20 µM
SMILES: C[N+](C)(C)Cc1cn(Cc2ccc([N+](C)(C)C)cc2)c2ccccc12

- Ratio IC50 (Homo sapiens): 6.7
- IC50 [3]: 2.2 µM
- IC50 [4]: 14.8 µM
SMILES: COc1ccc(Cn2cc(C[N+](C)(C)C)c3ccccc32)cc1OC

- Ratio IC50 (Homo sapiens): 4.1
- IC50 [3]: 2.2 µM
- IC50 [4]: 9.1 µM
SMILES: COc1cc(Cn2cc(C[N+](C)(C)C)c3ccccc32)ccc1O
